{
  "source": "patent US20230285389A1",
  "about": "“USE OF CSF-1R KINASE INHIBITOR” (Shanghai Runshi Medical Technology Co., Ltd, priority 2020, published 2023)",
  "key": {"[1]": {"system": "CSF-1-induced human macrophages (PBMC-derived CD14+ monocytes)", "test": "Survival of CSF-1-induced human macrophages from PBMC (CCK-8)", "format": "cell-based", "conditions": "Homo sapiens, 168 h, read-out: IC50 inhibition of cell survival, PBMC (CSF-1)", "experimental": "Cryopreserved human-derived peripheral blood (peripheral blood from healthy donors) mononuclear cells (PBMCs) were taken out of liquid nitrogen for recovery. After recovery, the cells were re-suspended at 50 million/mL with the running buffer and DNAase I was added at a final concentration of 100 µg/mL and the plate was allowed for incubation for 15 min at room temperature. After centrifugation at 300 g for 5 min, the supernatant was discarded. The pellet was re-suspended at 50 million cells/mL with the running buffer, and the suspension was filtered through a 70 µM filter screen into a flow tube. The cells were sorted by using CD14+ monocyte negative selection beads sorting kit from […] company. According to the manufacture’s instructions, the specific experimental procedures were as follows.\nAfter cells were re-suspended at 50 million cells/mL, 50 µL of the cocktail was added to each one mL of samples. The samples were incubated at room temperature for 5 min. The magnetic beads were vortexed for 30 sec, and added to the samples. The samples were incubated for further 5 min. The sample volumes were made up to 2.5 mL. The samples were placed on a magnetic frame ([…], #18000) for 2.5 min. […] The plate was placed in an incubator at 37° C. for 2-4 h, and then was read with an adjustable wavelength microplate reader setting at a wavelength of 450 nm."}, "[2]": {"system": "CSF-1-induced bone marrow-derived macrophages (BMDM)", "test": "CSF-1-induced murine-derived macrophage (BMDM) survival (CCK-8)", "format": "cell-based, BALB/c mice", "conditions": "Mus musculus, 168 h, read-out: IC50 inhibition of cell survival, BMDM (CSF-1)", "experimental": "BALB/c mice (female, 6 weeks old, healthy) were sacrificed. Bone marrow cells were taken from their femurs and tibia, and seeded into a 96-well culture plate at appropriate densities (90 µL per well) after erythrobiasis treatment. 100 ng/mL of CSF-1 factor was added to each well to induce macrophages (Bone marrow-derived macrophages, BMDM), and compounds at various concentrations were added and the plate was allowed for incubation for 7 days. A solvent control group (negative control) was set. After 7 day-exposure of the cells to the compounds, 10 µL of CCK-8 reagent was added to each well. The culture plate was placed in an incubator at 37° C. for 2-4 h, and then was read with a full-wavelength microplate reader setting at the wavelength of 450 nm."}, "[3]": {"system": "mouse colon cancer CT-26 xenograft", "test": "Growth of subcutaneous CT-26 xenografts, combination with anti-PD-1 antibody", "format": "in vivo, BALB/c mice", "conditions": "compound I alone (+ Rat IgG2a isotype), 5 mg/kg orally once a day, 12 days", "experimental": "CT-26 cells were subcutaneously inoculated into the right axillary fossa of BALB/c mice at a cell number of 5 × 10^6 per mouse. When the tumor cells successfully formed subcutaneous xenografts in the mice which further grew to an average volume of approximately 100 mm^3, the mice were randomly assigned to the dosing group and the control group. For the anti-PD-1 antibody group, an anti-PD-1 antibody (Bio X Cell Company, InVivoMAb anti-mouse PD-1 (CD279) (catalog : BE0273)) was administered […] once every three days at 10 mg/kg for 12 days. The control group was administrated the same amount of Hamster Ig (Rat IgG2a), as the isotype control of the anti-PD-1 antibody, and the administration route, dosage and frequency were same as those for the anti-PD-1 antibody group. […] Throughout the experiment, the tumor volume and the mice’s body weights were measured twice a week.\nThe tumor volume (TV) was calculated as TV = ½×a×b^2, where “a” and “b” are the length and width of the xenograft, respectively.\nThe relative tumor volume (RTV) was calculated from the results of the measurement according to the following equation:\nRTV = Vt/V0, where V0 was the tumor volume measured at the beginning of administration (i.e., d0) and Vt was the tumor volume measured at each point.\nThe evaluation index of the anti-tumor activity was tumor growth inhibition ratio TGI (%), which was calculated as: […]"}, "[4]": {"system": "mouse colon cancer MC38 xenografts", "test": "Pharmacodynamic experiment, growth of subcutaneous MC38 xenografts", "format": "in vivo", "conditions": "for TV (mean ±SEM) D0: day 0 (baseline); for TGI D7 / TV (mean ±SEM) D7: day 7; for TGI D14 / TV (mean ±SEM) D14: day 14; for TGI D20 / TV (mean ±SEM) D20: day 20; for TGI D24 / TV (mean ±SEM) D24: day 24", "experimental": "MC38 cells in good condition were re-suspended to 25 million cells/mL. 200 µL of cell suspension was inoculated subcutaneously in the right armpit of each mouse. When the tumor cells formed subcutaneous xenograft in the mice and grew to an average volume of approximately 100 mm^3, the mice were randomly assigned to the dosing group and the control group. The test compounds were prepared at the desired concentrations and corresponding equal amount of solvent was used as a solvent control. The drugs were administrated orally, and administrated once per day for 24 consecutive days.\nDuring the dosing period, the xenograft volumes of the mice and the weights of the mice were measured every 2-4 days. The experiment was terminated 24 days after dosing.\nThe tumor volume (TV) was calculated as TV = ½×a×b^2, where “a” and “b” are the length and width of an xenograft, respectively.\nStatistical tests were performed using the t test, with p≤0.05 representing a significant difference."}, "[5]": {"system": "CD8+ T cells co-cultured with CSF-1-induced BMDMs", "conditions": "BMDMs pre-incubated with compound; co-culture 72 h"}},
  "data": [
    {"smiles": "CNC(=O)c1cccc2cc(Oc3ccnc(NC(=O)c4ccc(N5C[C@@H](C)N[C@@H](C)C5)cc4)c3)ccc12", "note": "[Compound I]", "values": [
      {"measurement": "IC50", "setting": "[1]", "result": "30.5 ± 5.1", "unit": "nM"},
      {"measurement": "IC50", "setting": "[2]", "result": "10.2 ± 0.8", "unit": "nM"},
      {"measurement": "TGI / tumor inhibition rate", "setting": "[3]", "result": 45.8, "unit": "%"},
      {"measurement": "TV (mean ±SEM) D0", "setting": "[4]; 2.5 mg/kg oral once per day", "result": "79±13", "unit": "mm3"},
      {"measurement": "TGI D7", "setting": "[4]; 2.5 mg/kg oral once per day", "result": 63.3, "unit": "%"},
      {"measurement": "TV (mean ±SEM) D7", "setting": "[4]; 2.5 mg/kg oral once per day", "result": "119±17", "unit": "mm3"},
      {"measurement": "TGI D14", "setting": "[4]; 2.5 mg/kg oral once per day", "result": 63.0, "unit": "%"},
      {"measurement": "TV (mean ±SEM) D14", "setting": "[4]; 2.5 mg/kg oral once per day", "result": "232±39", "unit": "mm3"},
      {"measurement": "TGI D20", "setting": "[4]; 2.5 mg/kg oral once per day", "result": 74.6, "unit": "%"},
      {"measurement": "TV (mean ±SEM) D20", "setting": "[4]; 2.5 mg/kg oral once per day", "result": "281±59", "unit": "mm3"},
      {"measurement": "TGI D24", "setting": "[4]; 2.5 mg/kg oral once per day", "result": 75.3, "unit": "%"},
      {"measurement": "TV (mean ±SEM) D24", "setting": "[4]; 2.5 mg/kg oral once per day", "result": "348±80", "unit": "mm3"},
      {"measurement": "TV (mean ±SEM) D0", "setting": "[4]; 10 mg/kg oral once per day", "result": "79±12", "unit": "mm3"},
      {"measurement": "TGI D7", "setting": "[4]; 10 mg/kg oral once per day", "result": 100.9, "unit": "%"},
      {"measurement": "TV (mean ±SEM) D7", "setting": "[4]; 10 mg/kg oral once per day", "result": "78±15", "unit": "mm3"},
      {"measurement": "TGI D14", "setting": "[4]; 10 mg/kg oral once per day", "result": 90.1, "unit": "%"},
      {"measurement": "TV (mean ±SEM) D14", "setting": "[4]; 10 mg/kg oral once per day", "result": "120±42", "unit": "mm3"},
      {"measurement": "TGI D20", "setting": "[4]; 10 mg/kg oral once per day", "result": 95.2, "unit": "%"},
      {"measurement": "TV (mean ±SEM) D20", "setting": "[4]; 10 mg/kg oral once per day", "result": "117±46", "unit": "mm3"},
      {"measurement": "TGI D24", "setting": "[4]; 10 mg/kg oral once per day", "result": 93.4, "unit": "%"},
      {"measurement": "TV (mean ±SEM) D24", "setting": "[4]; 10 mg/kg oral once per day", "result": "150±64", "unit": "mm3"},
      {"measurement": "growth of murine colon cancer MC38 cell xenografts", "setting": "[4]; oral once per day for 24 days", "result": "significantly inhibited"},
      {"measurement": "CD8+ T cell proliferation compared to solvent control", "setting": "[5]", "result": "substantially increased"}
    ]}
  ]
}
